Test results reported in ChEMBL document CHEMBL5329204, “Design, synthesis and biological evaluation of EGFR kinase inhibitors that spans the orthosteric and allosteric sites” (Bioorg Med Chem, 2023).

Experiments:
[1] = Inhibition of EGFR L858R/T790M/C797S triple mutant in mouse BaF3 cells assessed as cell growth inhibition measured after 72 hrs by CellTiter-Glo assay; type: cell-based; conditions: BaF3, 72 h
NCI-H1975 [2] = assay: Anticancer activity against human NCI-H1975 cells assessed as cell growth inhibition measured after 72 hrs by MTT assay; type: functional, cell-based; conditions: NCI-H1975, 72 h
[3] = Inhibition of EGFR Del19/T790M/C797S triple mutant in mouse BaF3 cells assessed as cell growth inhibition measured after 72 hrs by CellTiter-Glo assay; type: cell-based; conditions: BaF3, 72 h
A549 = assay: Anticancer activity against human A549 cells assessed as cell growth inhibition measured after 72 hrs by MTT assay; type: functional, cell-based; conditions: A549, 72 h
[4] = Inhibition of EGFR L858R/T790M double mutant in mouse BaF3 cells assessed as cell growth inhibition measured after 72 hrs by CellTiter-Glo assay; type: cell-based; conditions: BaF3, 72 h
NCI-H1975 [5] = assay: Potency index, ratio of gefitinib IC50 to test compound IC50 for anticancer activity against human NCI-H1975 cells assessed as cell growth inhibition measured after 72 hrs by MTT assay; type: functional

Row | IC50 (NCI-H1975 [2]) [µM] | IC50 (A549) [µM] | SMILES | IC50 [1] [µM] | IC50 [3] [µM] | IC50 [4] [µM] | Ratio IC50 (NCI-H1975 [5])
1 | 9 |  | COc1cc2ncnc(Nc3ccc(NC(=O)C(c4ccccc4)N4Cc5ccccc5C4=O)cc3F)c2cc1OCCCN1CCOCC1 (stereo not drawn) | 6.16 |  |  | 
2 | 6.28 |  | COc1cc2ncnc(N(C)c3ccc(NC(=O)C(c4ccccc4)N4Cc5ccccc5C4=O)cc3)c2cc1OCCCN1CCOCC1 (stereo not drawn) | 8.45 |  |  | 
3 | 8.74 |  | COc1cc2ncnc(NCc3cccc(NC(=O)C(c4ccccc4)N4Cc5ccccc5C4=O)c3)c2cc1OCCCN1CCOCC1 (stereo not drawn) | 8.83 |  |  | 
4 | > 10 |  | O=C(Nc1nccs1)C(c1ccccc1)N1Cc2ccccc2C1=O (stereo not drawn) | > 10 | > 10 |  | 
5 | 14.4 |  | COc1cc2ncnc(Nc3ccc(CNC(=O)C(c4ccccc4)N4Cc5ccccc5C4=O)cc3)c2cc1OCCCN1CCOCC1 (stereo not drawn) | > 20 |  |  | 
6 | > 20 |  | COc1cc2ncnc(Nc3ccc(C(=O)NNC(=O)C(c4ccccc4)N4Cc5ccccc5C4=O)cc3)c2cc1OCCCN1CCOCC1 (stereo not drawn) | > 20 |  |  | 
7 | 3.72 |  | COc1cc2ncnc(Nc3ccc(NC(=O)C(c4ccccc4)N4Cc5ccccc5C4=O)c(F)c3)c2cc1OCCCN1CCOCC1 (stereo not drawn) | 5.85 |  |  | 
8 | 9.32 |  | COc1cc2ncnc(Nc3cccc(NC(=O)C(c4ccccc4)N4Cc5ccccc5C4=O)c3)c2cc1OCCCN1CCOCC1 (stereo not drawn) | 9.06 |  |  | 
9 | 5.13 |  | COc1cc2ncnc(NNc3ccc(NC(=O)C(c4ccccc4)N4Cc5ccccc5C4=O)cc3)c2cc1OCCCN1CCOCC1 (stereo not drawn) | 7.8 |  |  | 
10 | > 20 | > 20 | CC(C)(O)CC(=O)NCCn1ccc2ncnc(Nc3ccc(NC(=O)C(c4ccccc4)N4Cc5ccccc5C4=O)cc3)c21 (stereo not drawn) | > 20 | > 20 | > 20 | 
11 | > 20 |  | COc1cc2ncnc(NNC(=O)c3ccc(NC(=O)C(c4ccccc4)N4Cc5ccccc5C4=O)cc3)c2cc1OCCCN1CCOCC1 (stereo not drawn) | > 20 |  |  | 
12 | > 20 |  | COc1cc2ncnc(NNC(=O)c3cccc(NC(=O)C(c4ccccc4)N4Cc5ccccc5C4=O)c3)c2cc1OCCCN1CCOCC1 (stereo not drawn) | > 20 |  |  | 
13 | 1.85 | > 20 | COCCOc1cc2ncnc(Nc3ccc(NC(=O)C(c4ccccc4)N4Cc5ccccc5C4=O)cc3)c2cc1OCCOC (stereo not drawn) | > 20 | > 20 | 2.69 | 
14 |  |  | C=CC(=O)Nc1cc(Nc2nccc(-c3cn(C)c4ccccc34)n2)c(OC)cc1N(C)CCN(C)C [OSIMERTINIB] |  | 0.75 |  | 
15 | 1.69 | > 20 | COc1cc2ncnc(Nc3ccc(NC(=O)C(c4ccccc4)N4Cc5ccccc5C4=O)cc3)c2cc1OCCCN1CCOCC1 (stereo not drawn) | 5.47 | 8.13 | 1.45 | 6
16 | > 20 | > 20 | CNC(=O)CN1CCC(Oc2cc3c(Nc4ccc(NC(=O)C(c5ccccc5)N5Cc6ccccc6C5=O)cc4)ncnc3cc2OC)CC1 (stereo not drawn) | > 20 | > 20 | 1.32 | 
17 | 11 |  | COc1cc2ncnc(NCc3ccc(NC(=O)C(c4ccccc4)N4Cc5ccccc5C4=O)cc3)c2cc1OCCCN1CCOCC1 (stereo not drawn) | 3.67 | 3.46 |  | 
